According to the NIST ThermoML archive (doi:10.1021/je049636m):
Numbers after ± are expanded uncertainties.

Conditions: Liquid

Cc1ccccc1 [toluene]
Conditions	viscosity [mPa·s]
298.15 K, 100 kPa	0.555 ± 0.0045
298.15 K, 2110 kPa	0.5649 ± 0.0045
298.15 K, 4100 kPa	0.5743 ± 0.0046
298.15 K, 6100 kPa	0.585 ± 0.0046
298.15 K, 8110 kPa	0.5937 ± 0.0047
298.15 K, 10110 kPa	0.6024 ± 0.0047
323.15 K, 100 kPa	0.4188 ± 0.0037
323.15 K, 2080 kPa	0.429 ± 0.0037
323.15 K, 4110 kPa	0.4348 ± 0.0038
323.15 K, 6000 kPa	0.4409 ± 0.0039
323.15 K, 8120 kPa	0.4493 ± 0.0039
323.15 K, 10050 kPa	0.455 ± 0.0039
323.15 K, 12210 kPa	0.4637 ± 0.0039
323.15 K, 15000 kPa	0.4736 ± 0.0039
348.15 K, 100 kPa	0.3331 ± 0.0032
348.15 K, 2120 kPa	0.3382 ± 0.0032
348.15 K, 12110 kPa	0.3664 ± 0.0034
348.15 K, 15210 kPa	0.3759 ± 0.0034

viscosity [mPa·s], Vibrating wire viscometry
Conditions	100 kPa	10000 kPa	20000 kPa	30000 kPa	40000 kPa
298.15 K	0.5551 ± 0.0065	0.6003 ± 0.0068	0.6445 ± 0.0071	0.6953 ± 0.0074	0.751 ± 0.0078
323.15 K	0.4223 ± 0.0057	0.4573 ± 0.0059	0.4945 ± 0.0062	0.5313 ± 0.0064	0.5718 ± 0.0067
348.15 K	0.3285 ± 0.0052	0.3583 ± 0.0053	0.3875 ± 0.0055	0.4165 ± 0.0057	0.4483 ± 0.0059
